Experimental data: patent US4459290A, “C-23-Modified derivatives of OMT, pharmaceutical compositions and method of use” (priority 1982, dated 1984)
Values after ≈ are worked out from the molar mass of the structure shown. Like-named read-outs stand apart in the source and are kept apart here.

Key:
Escherichia coli N10 = assay: MIC, standard agar-dilution assay (Table V); format: cell-based; conditions: Escherichia coli, N10
Protocol: (§1) Especially noteworthy is the improved activity against gram-negative bacteria for several derivatives when compared to the activity of OMT. […] The MIC's in Tables V and VI were determined by standard agar-dilution assays. The MIC's in Table VII were obtained using a conventional broth-dilution microtiter test.

Escherichia coli EC14 = assay: MIC, standard agar-dilution assay (Table V); format: cell-based; conditions: Escherichia coli, EC14
Protocol: as §1

[1] = system: Staphylococcus aureus X1.1; assay: MIC, standard agar-dilution assay (Table V); format: cell-based; conditions: Staphylococcus aureus, X1.1
Protocol: as §1

[2] = system: Staphylococcus aureus V41; assay: MIC, standard agar-dilution assay (Table V); format: cell-based; conditions: Staphylococcus aureus, V41
Protocol: as §1

[3] = system: Staphylococcus epidermidis EPI2; assay: MIC, standard agar-dilution assay (Table V); format: cell-based; conditions: Staphylococcus epidermidis
Protocol: as §1

Streptococcus Group 9960 = assay: MIC, standard agar-dilution assay (Table V); format: cell-based; conditions: GROUP9960
Protocol: as §1

[4] = system: Staphylococcus aureus S13E; assay: MIC, standard agar-dilution assay (Table V); format: cell-based; conditions: Staphylococcus aureus, S13E
Protocol: as §1

[5] = system: Staphylococcus epidermidis EPI1; assay: MIC, standard agar-dilution assay (Table V); format: cell-based; conditions: Staphylococcus epidermidis
Protocol: as §1

[6] = system: Klebsiella pneumoniae X26; assay: MIC, standard agar-dilution assay (Table V); format: cell-based; conditions: Klebsiella pneumoniae
Protocol: as §1

[7] = system: Staphylococcus aureus X400; assay: MIC, standard agar-dilution assay (Table V); format: cell-based; conditions: Staphylococcus aureus
Protocol: as §1

Shigella sonnei N9 = assay: MIC, standard agar-dilution assay (Table V); format: cell-based
Protocol: as §1

[8] = system: Klebsiella pneumoniae KAE; assay: MIC, standard agar-dilution assay (Table V); format: cell-based; conditions: Klebsiella pneumoniae
Protocol: as §1

[9] = system: Streptococcus Group D X66; assay: MIC, standard agar-dilution assay (Table V); format: cell-based
Protocol: as §1

[10] = system: Haemophilus influenzae R252; assay: MIC, standard agar-dilution assay (Table V); format: cell-based; conditions: Haemophilus influenzae
Protocol: (§2) The MIC's in Tables V and VI were determined by standard agar-dilution assays. The MIC's in Table VII were obtained using a conventional broth-dilution microtiter test.

Escherichia coli TEM = assay: MIC, standard agar-dilution assay (Table V); format: cell-based; conditions: Escherichia coli
Protocol: as §2

[11] = system: Haemophilus influenzae Holt; assay: MIC, standard agar-dilution assay (Table V); format: cell-based; conditions: Haemophilus influenzae
Protocol: as §2

[12] = system: Streptococcus pyogenes C203; assay: MIC, standard agar-dilution assay (Table V); format: cell-based; conditions: Streptococcus pyogenes; S. pyogenes C203; agar dilution; read-out: MIC
Protocol: as §2

Pasteurella multocida = assay: Protection of one-day-old chicks against Pasteurella multocida infection (Table IX); format: in vivo; conditions: subcutaneous 30 mg/kg × 2, 1 and 4 hours post-challenge
Protocol: The C-23 modified derivatives of OMT have also shown in vivo antibacterial activity against infections induced by gram-negative bacteria. Table IX summarizes the results of tests in which illustrative compounds were evaluated against Pasteurella infections in one-day-old chicks. The compounds were administered by subcutaneous injection at a dosage of 30 mg/kg, 1 and 4 hours post-challenge of the chicks with Pasteurella multocida (0.1 ml of a twenty-hour tryptose broth culture of an avian P. multocida given subcutaneously). In the tests, all ten non-medicated infected chicks died within 24 hours of Pasteurella challenge.

[13] = system: Streptococcus pneumoniae Park I; assay: microbe, parasite or virus in culture; format: cell-based; conditions: Streptococcus pneumoniae; S. pneumoniae Park I; agar dilution; read-out: MIC
Protocol: as §1

[14] = system: Pasteurella multocida 17E; assay: MIC, broth-dilution microtiter test (Table VII); format: cell-based; conditions: Pasteurella multocida
Protocol: as §1

[15] = system: Pasteurella hemolytica 22C; assay: MIC, broth-dilution microtiter test (Table VII); format: cell-based; conditions: Pasteurella, P. hemolytica 22C, read-out: MIC
Protocol: as §1

[16] = system: Pasteurella multocida 60A; assay: MIC, broth-dilution microtiter test (Table VII); format: cell-based; conditions: Pasteurella multocida
Protocol: as §1

Mycoplasma hyorhinis = assay: MIC, broth-dilution microtiter test (Table VII); format: cell-based
Protocol: as §1

[17] = system: Pasteurella hemolytica 23C; assay: MIC, broth-dilution microtiter test (Table VII); format: cell-based; conditions: Pasteurella, P. hemolytica 23C, read-out: MIC
Protocol: as §1

Streptococcus sp. 80 = assay: MIC, broth-dilution microtiter test (Table VII); format: cell-based; conditions: Streptococcus sp. 80; broth-dilution microtiter; read-out: MIC
Protocol: as §1

Staphylococcus aureus = assay: MIC, broth-dilution microtiter test (Table VII); format: cell-based; conditions: Staphylococcus aureus
Protocol: as §1

Mycoplasma gallisepticum = assay: MIC, broth-dilution microtiter test (Table VII); format: cell-based; conditions: Mycoplasmoides gallisepticum
Protocol: as §1

[18] = system: Pasteurella multocida 22A; assay: MIC, broth-dilution microtiter test (Table VII); format: cell-based; conditions: Pasteurella multocida; P. multocida 22A; broth-dilution microtiter; read-out: MIC
Protocol: as §1

[19] = system: Pasteurella multocida 40G; assay: MIC, broth-dilution microtiter test (Table VII); format: cell-based; conditions: Pasteurella multocida
Protocol: as §1

Mycoplasma synoviae = assay: MIC, broth-dilution microtiter test (Table VII); format: cell-based; conditions: Mycoplasmopsis synoviae
Protocol: as §1

[20] = system: Pasteurella hemolytica 41D; assay: MIC, broth-dilution microtiter test (Table VII); format: cell-based; conditions: Pasteurella, P. hemolytica 41D, read-out: MIC
Protocol: as §1

[21] = system: Pasteurella multocida 68C; assay: MIC, broth-dilution microtiter test (Table VII); format: cell-based; conditions: Pasteurella multocida
Protocol: as §1

[22] = system: Streptococcus pyogenes C203; assay: ED50 in mice experimentally infected with S. pyogenes C203 (Table VIII); format: in vivo
Protocol: The C-23 modified derivatives of OMT of this invention have shown in vivo antimicrobial activity against experimental infections. When two doses of test compound were administered to mice experimentally infected with a gram-positive bacterium, S. pyogenes C203, the activity observed was measured as an ED50 value [effective dose in mg/kg to protect 50% of the test animals: see Warren Wick, et al., J. Bacteriol. 81, 233-235 (1961)].

Compound: CCC1OC(=O)CC(O)C(C)C(OC2OC(C)C(O)C(N(C)C)C2O)C(CC=O)CC(C)C(=O)C=CC(C)=CC1CNC(=O)[C@H](NC(=O)OC(C)(C)C)c1ccccc1 (single isomer, unassigned) [Compound 11, 23-Deoxy-23-[(D)-(-)-(N-t-BOC-phenylglycyl)amino]-OMT]
- MIC (Escherichia coli N10): > 128 µg/mL
- MIC (Escherichia coli EC14): > 128 µg/mL
- MIC [1]: 1 µg/mL (≈ 1.2 µM)
- MIC [2]: 2 µg/mL (≈ 2.41 µM)
- MIC ([3]; S. epidermidis EPI2, agar dilution, read-out: MIC): 4 µg/mL (≈ 4.82 µM)
- MIC (Streptococcus Group 9960; Streptococcus Group 9960, agar dilution, read-out: MIC): 2 µg/mL (≈ 2.41 µM)
- MIC [4]: 2 µg/mL (≈ 2.41 µM)
- MIC ([5]; S. epidermidis EPI1, agar dilution, read-out: MIC): 1 µg/mL (≈ 1.2 µM)
- MIC ([6]; K. pneumoniae X26, agar dilution, read-out: MIC): 16 µg/mL (≈ 19.3 µM)
- MIC ([7]; S. aureus X400, methicillin-resistant strain, agar dilution, read-out: MIC): 4 µg/mL (≈ 4.82 µM)
- MIC (Shigella sonnei N9): > 128 µg/mL
- MIC [8]: > 128 µg/mL
- MIC ([9]; Streptococcus Group D X66, agar dilution, read-out: MIC): 2 µg/mL (≈ 2.41 µM)
- MIC ([10]; R252): 8 µg/mL (≈ 9.64 µM)
- MIC (Escherichia coli TEM): > 128 µg/mL
- MIC [11]: 8 µg/mL (≈ 9.64 µM)
- MIC [12]: 0.5 µg/mL (≈ 0.602 µM)
- Number of deaths/number treated (Pasteurella multocida): 10/10
- MIC [13]: 0.25 µg/mL (≈ 0.301 µM)
- MIC ([14]; P. multocida 17E, bovine isolate, broth-dilution microtiter, read-out: MIC): 6.25 µg/mL (≈ 7.53 µM)
- MIC [15]: 25 µg/mL (≈ 30.1 µM)
- MIC ([16]; P. multocida 60A, avian isolate, broth-dilution microtiter, read-out: MIC): 12.5 µg/mL (≈ 15.1 µM)
- MIC (Mycoplasma hyorhinis; M. hyorhinis, broth-dilution microtiter, read-out: MIC): > 50 µg/mL
- MIC [17]: 25 µg/mL (≈ 30.1 µM)
- MIC (Streptococcus sp. 80): 0.78 µg/mL (≈ 0.94 µM)
- MIC (Staphylococcus aureus; S. aureus, broth-dilution microtiter, read-out: MIC): 3.12 µg/mL (≈ 3.76 µM)
- MIC (Mycoplasma gallisepticum; M. gallisepticum, broth-dilution microtiter, read-out: MIC): 0.78 µg/mL (≈ 0.94 µM)
- MIC [18]: 12.5 µg/mL (≈ 15.1 µM)
- MIC ([19]; P. multocida 40G, broth-dilution microtiter, read-out: MIC): 12.5 µg/mL (≈ 15.1 µM)
- MIC (Mycoplasma synoviae; M. synoviae, broth-dilution microtiter, read-out: MIC): 0.78 µg/mL (≈ 0.94 µM)
- MIC [20]: 50 µg/mL (≈ 60.2 µM)
- MIC ([21]; P. multocida 68C, broth-dilution microtiter, read-out: MIC): 6.25 µg/mL (≈ 7.53 µM)

Compound: CCC1OC(=O)CC(O)C(C)C(OC2OC(C)C(O)C(N(C)C)C2O)C(CC=O)CC(C)C(=O)C=CC(C)=CC1CN (centres unmarked) [Compound 9, 23-Deoxy-23-amino-OMT]
- ED50 ([22]; C203, po, read-out: ED50, Oral): > 100 mg/kg
- ED50 ([22]; C203, sc, mice, subcutaneous, doses given 1 and 4 hours postinfection, read-out: ED50, Subcutaneous): 2.6 mg/kg
- MIC (Escherichia coli N10): > 128 µg/mL
- MIC (Escherichia coli EC14): > 128 µg/mL
- MIC [1]: 8 µg/mL (≈ 13.4 µM)
- MIC [2]: 8 µg/mL (≈ 13.4 µM)
- MIC ([3]; EPI2): 8 µg/mL (≈ 13.4 µM)
- MIC (Streptococcus Group 9960): 8 µg/mL (≈ 13.4 µM)
- MIC [4]: 8 µg/mL (≈ 13.4 µM)
- MIC ([5]; EPI1): 8 µg/mL (≈ 13.4 µM)
- MIC ([6]; X26): 16 µg/mL (≈ 26.8 µM)
- MIC ([7]; X400): 8 µg/mL (≈ 13.4 µM)
- MIC (Shigella sonnei N9): > 128 µg/mL
- MIC [8]: > 128 µg/mL
- MIC [9]: 8 µg/mL (≈ 13.4 µM)
- MIC ([10]; H. influenzae R252, ampicillin-resistant strain, agar dilution, read-out: MIC): 1 µg/mL (≈ 1.68 µM)
- MIC (Escherichia coli TEM): > 128 µg/mL
- MIC [12]: 2 µg/mL (≈ 3.35 µM)
- Number of deaths/number treated (Pasteurella multocida): 0/10
- MIC [13]: 1 µg/mL (≈ 1.68 µM)
- MIC ([14]; 17E): 6.25 µg/mL (≈ 10.5 µM)
- MIC [15]: 12.5 µg/mL (≈ 20.9 µM)
- MIC ([16]; 60A): 6.25 µg/mL (≈ 10.5 µM)
- MIC (Mycoplasma hyorhinis): 12.5 µg/mL (≈ 20.9 µM)
- MIC [17]: 12.5 µg/mL (≈ 20.9 µM)
- MIC (Streptococcus sp. 80): 1.56 µg/mL (≈ 2.61 µM)
- MIC (Staphylococcus aureus): 12.5 µg/mL (≈ 20.9 µM)
- MIC (Mycoplasma gallisepticum): 0.78 µg/mL (≈ 1.31 µM)
- MIC [18]: 25 µg/mL (≈ 41.9 µM)
- MIC ([19]; 40G): 12.5 µg/mL (≈ 20.9 µM)
- MIC (Mycoplasma synoviae): 0.78 µg/mL (≈ 1.31 µM)
- MIC [20]: 25 µg/mL (≈ 41.9 µM)
- MIC ([21]; 68C): 12.5 µg/mL (≈ 20.9 µM)
